Laboratory results: article PMC9597602, “Metal Complexes as Antifungals? From a Crowd-Sourced Compound Library to the First In Vivo Experiments” (JACS Au, 2022)
“And” between values parts separate entries of the source, which are not always exact repeats. Equal entries are not always repeated. Where two headings read alike, the source gives them in different places.

Assays:
[1] = system: Cryptococcus neoformans H99 ATCC 208821 type strain; test: Antifungal MIC assay; format: cell-based; settings: for MIC: Cryptococcus neoformans, ATCC208821, read-out: MIC* Cryptococcus neoformans ATCC 208821
Method: (§1) For the fungal assays, both fungi (yeast) strains were cultured for 3 days on Yeast Extract-Peptone Dextrose (YPD; Becton Dickinson 242720) agar at 30 °C. A yeast suspension of 1 × 10^6 to 5 × 10^6 CFU/mL (as determined by OD530) was prepared from five colonies from the agar plates, subsequently diluted with Yeast Nitrogen Base media (YNB; Becton Dickinson 233520), and added to each well of the compound containing plates (384-well plates, NBS; Corning CLS3640), giving a final cell density of 2.5 × 10^3 CFU/mL and a total volume of 50 μL. Plates were covered and incubated at 35 °C for 36 h without shaking. […] MIC values were recorded as the lowest concentration at which the growth was inhibited by ≥80%, equivalent to ″optically clear-to-slightly hazy″ or MIC score of 0–1 as per CLSI guidelines M27 Reference Method for Broth Dilution Antifungal Susceptibility Testing of Yeasts. […] Fluconazole (Sigma F8929) was used as internal control on each plate for all strains. All compounds were tested as two technical replicates in two to four independent biological assays, n = 4–8 final data.

[2] = system: Escherichia coli ATCC 25922 FDA control strain; test: CO-ADD antibacterial MIC assay; format: cell-based
Method: (§2) For the all the bacterial assays, each bacterial strain was cultured in cation-adjusted Mueller Hinton broth (CAMHB; Bacto Laboratories 212322) at 37 °C overnight. A sample of each culture was then diluted 40-fold in fresh CAMHB and incubated at 37 °C for 1.5–3 h. The resultant mid-log phase cultures were diluted with CAMHB (CFU/mL measured by OD600) and then added to each well of the compound-containing plates (384-well non-binding surface (NBS) plates; Corning CLS3640), giving a cell density of 5 × 10^5 CFU/mL and a total volume of 50 μL. Plates were covered and incubated at 37 °C for 18 h without shaking. Inhibition of bacterial growth was determined by measuring the absorbance at 600 nm (OD600) using media only as negative control and bacteria without inhibitors as positive control. MIC values were determined as the lowest concentration at which the growth was inhibited by ≥80% (equivalent to no visible growth by the eye). Colistin sulfate (Sigma C4461) and vancomycin HCl (Sigma 861987) were used as internal controls on each plate for Gram-negative and Gram-positive bacteria, respectively. All compounds were tested as two technical replicates in two independent biological assays, n = 4 final data.

[3] = system: Acinetobacter baumannii ATCC 19606 type strain; test: CO-ADD antibacterial MIC assay; format: cell-based
Method: as §2

[4] = system: methicillin-resistant Staphylococcus aureus ATCC 43300; test: CO-ADD antibacterial MIC assay; format: cell-based
Method: as §2

[5] = system: Pseudomonas aeruginosa ATCC 27853 QC control strain; test: CO-ADD antibacterial MIC assay; format: cell-based
Method: as §2

[6] = system: HEK-293 human embryonic kidney cells ATCC CRL-1573; settings: for HEK CC50: initial CO-ADD screening, 20 h
Method: The cells were incubated together with the compounds for 20 h at 37 °C in 5% CO2. […] Tamoxifen (Sigma T5648) was used as internal control on each plate.

human red blood cells = format: cell-based; settings: initial CO-ADD screening, 1 h; 10% hemolysis
Method: Human whole blood (Australian Red Cross) was washed three times with 3 vol of 0.9% NaCl and resuspended in a concentration of 0.5 × 10^8 cells/mL, determined by a manual cell count in a Neubauer hemocytometer. […] After incubation, the plates were centrifuged at 1000g for 10 min to pellet cells and debris; 25 μL of the supernatant was then transferred to reading plates (384-well, polystyrene plated (PS), Corning CLS3680), with hemolysis determined by measuring the supernatant absorbance at […] (OD405) using cells without inhibitors as negative control and cells with 1% Triton X-100 (Sigma T8787) as positive control. […] Melittin (Sigma M2272) was used as internal control on each plate.

[7] = system: Candida albicans ATCC 90028 NCCLS11; test: Antifungal MIC assay; format: cell-based; settings: for MIC: Candida albicans, ATCC90028, comparator antifungals, read-out: MIC* Candida albicans ATCC 90028
Method: as §1, with “[…],” for “MIC values were recorded as the lowest concentration at which the growth was inhibited by ≥80%,”

[8] = system: Candida auris CBS10913 JCM 15448; test: Antifungal MIC assay, extended panel; format: cell-based; settings: Candidozyma auris, comparator antifungals, read-out: MIC* Candida auris CBS10913
Method: as §1, with “values were recorded as the lowest concentration at which the growth was inhibited by ≥80%, equivalent to ″optically clear-to-slightly hazy″ or MIC score of 0–1 as per CLSI guidelines M27” left out

[9] = system: Candida auris CBS12373 KCTC 17810; test: Antifungal MIC assay, extended panel; format: cell-based; settings: Candidozyma auris, comparator antifungals, read-out: MIC* Candida auris CBS12373
Method: as §1, with “values were recorded as the lowest concentration at which the growth was inhibited by ≥80%, equivalent to ″optically clear-to-slightly hazy″ or MIC score of 0–1 as per CLSI guidelines M27” left out

[10] = initial CO-ADD dose-response screening, ≥80% growth inhibition
[11] = single concentration (32 µg/mL) CO-ADD Primary Screening, no inhibition, no dose-response
[12] = ≥80% inhibition, converted with MW of Table S12

| Compound | MIC Cn [1, 10] | MIC Ec [2, 10] | MIC Ab [3, 10] | MIC MRSA (Sa) [4, 10] | MIC Pa [5, 10] | HEK CC50 [6] | RBC HC10 (human red blood cells) | MIC Ca [7, 10] | also measured |
| --- | --- | --- | --- | --- | --- | --- | --- | --- | --- |
| O=C([O][Ag])c1ccc(N2N=C(/C=C/c3ccccc3)CC2c2ccccc2)cc1.O=C([O][Ag])c1ccc(N2N=C(/C=C/c3ccccc3)CC2c2ccccc2)cc1 (racemic) [Ag3] | 16 µg/mL | > 32 µg/mL | > 32 µg/mL | > 32 µg/mL | > 32 µg/mL | > 32 µg/mL | > 32 µg/mL | 16 µg/mL |  |
| COc1ccc(/C=C/C2=NN(c3ccc(C(=O)O)cc3)C(c3ccc(OC)c(OC)c3)C2)cc1OC (racemic) [Ligand-Ag1] |  |  |  |  |  |  |  |  | MIC Cn [1, 11]: > 32 µg/mL; MIC Ec [2, 11]: > 32 µg/mL; MIC Ab [3, 11]: > 32 µg/mL; MIC MRSA (Sa) [4, 11]: > 32 µg/mL; MIC Pa [5, 11]: > 32 µg/mL; MIC Ca [7, 11]: > 32 µg/mL |
| O=C(O)c1ccc(N2N=C(/C=C/C=C/c3ccccc3)CC2/C=C/c2ccccc2)cc1 (racemic) [Ligand-Ag2] |  |  |  |  |  |  |  |  | MIC Cn [1, 11]: > 32 µg/mL; MIC Ec [2, 11]: > 32 µg/mL; MIC Ab [3, 11]: > 32 µg/mL; MIC MRSA (Sa) [4, 11]: > 32 µg/mL; MIC Pa [5, 11]: > 32 µg/mL; MIC Ca [7, 11]: > 32 µg/mL |
| O=C(O)c1ccc(N2N=C(/C=C/c3ccccc3)CC2c2ccccc2)cc1 (racemic) [Ligand-Ag3] |  |  |  |  |  |  |  |  | MIC Cn [1, 11]: > 32 µg/mL; MIC Ec [2, 11]: > 32 µg/mL; MIC Ab [3, 11]: > 32 µg/mL; MIC MRSA (Sa) [4, 11]: > 32 µg/mL; MIC Pa [5, 11]: > 32 µg/mL; MIC Ca [7, 11]: > 32 µg/mL |
| O=[N+]([O-])[O-].[Ag+] [AgNO3, reference compound] | 0.25 µg/mL | 0.25 µg/mL | 0.25 µg/mL | 2 µg/mL | 0.25 µg/mL | > 32 µg/mL | 8.9 µg/mL | 0.25 µg/mL |  |
| c1ccc([S][Au][PH](c2ccco2)(c2ccco2)c2ccco2)nc1 [Au-S1] | 16 µg/mL |  |  | 16 µg/mL |  |  |  | 16 µg/mL |  |
| Cc1ccnc([S][Au][PH](c2ccco2)(c2ccco2)c2ccco2)n1 [Au-S2] |  |  |  |  |  | 1.38 µg/mL |  |  |  |
| FC(F)(F)c1ccnc([S][Au][PH](c2ccco2)(c2ccco2)c2ccco2)n1 [Au-S3] |  |  |  | 0.25 µg/mL |  |  |  |  |  |
| FC(F)(F)c1ccnc([S][Au][PH](c2ccccc2)(c2ccccc2)c2ccccc2)n1 [Au-S6] |  |  |  | 0.25 µg/mL |  |  |  |  |  |
| Cn1ccn(Cc2ccccc2)[c]1=[Au]1[S][Mo]2([S]1)[S][Au](=[c]1n(C)ccn1Cc1ccccc1)[S]2 (stereo not drawn) [Au-S10] |  |  |  |  |  |  |  | 0.25 µg/mL |  |
| Cc1cccc2[n+]1[Au-]([Cl])([Cl])[n+]1c(C)cccc1C(c1ccccc1)=C=C2c1ccccc1.[Cl-] [Au-S11] | 16 µg/mL | 32 µg/mL | > 32 µg/mL | 16 µg/mL | > 32 µg/mL | > 32 µg/mL | > 32 µg/mL | 4 µg/mL |  |
| Cc1cccc2[n+]1[Au-]([Cl])([Cl])[n+]1c(C)cccc1C(C(C)(C)C)=C=C2c1ccccc1.[Cl-] [Au-S12] | <= 0.25 μg/mL | > 32 µg/mL | > 32 µg/mL | 16 µg/mL | > 32 µg/mL | > 32 µg/mL | <= 0.25 μg/mL | 4 µg/mL |  |
| CC1=CC=CC2=C(c3ccccc3)[C](=[Au]([Cl])([Cl])[Cl])C(c3ccccc3)(c3cccc(C)n3)N12 (stereo not drawn) [Au-S13] | <= 0.25 μg/mL | 16 µg/mL | 32 µg/mL | <= 0.25 μg/mL | > 32 µg/mL | > 32 µg/mL | 19.3 µg/mL | 2 µg/mL |  |
| Cc1cccc(C2(c3ccccc3)[C]([Au-][Cl])=C(c3ccccc3)c3cccc(C)[n+]32)n1 (stereo not drawn) [Au-S14] | <= 0.25 μg/mL | > 32 µg/mL | 32 µg/mL | <= 0.25 μg/mL | > 32 µg/mL | 0.7 µg/mL | 23.7 µg/mL | <= 0.25 μg/mL |  |
| Cc1cccc(C2(c3ccccc3)[C]([Au-][Cl])=C(C(C)(C)C)c3cccc(C)[n+]32)n1 (stereo not drawn) [Au-S15] | <= 0.25 μg/mL | > 32 µg/mL | 32 µg/mL | 2 µg/mL | 32 µg/mL | > 32 µg/mL | > 32 µg/mL | <= 0.25 μg/mL |  |
| CC1=C(C)C(C)C(c2ccc(-c3ccccc3)cc2)=C1C.Cc1ccccc1NC1=[N][Ir]([Cl])[NH]C(NS(=O)(=O)c2ccc([N+](=O)[O-])cc2)=N1 [Ir2] |  |  |  |  |  |  |  |  | CC50 ([6]; read-out: HEK293 CC50, ranges obtained upon retesting, new batch): 62 to 65 µM |
| CC(=O)N1CCN(c2ccc(OCC3COC(Cn4ccnc4)(c4ccc(Cl)cc4Cl)O3)cc2)CC1 (stereo not drawn) [Ketoconazole, reference compound] |  |  |  |  |  |  |  |  | MIC [1]: > 64 µg/mL and > 170 µM; MIC ([7]; MIC = ≥80% inhibition): 0.002 to 0.004 µg/mL; MIC [7, 12]: 0.005 to 0.01 µM; MIC ([8]; MIC = ≥80% inhibition): 0.004 to 0.016 µg/mL; MIC [8, 12]: 0.01 to 0.042 µM; MIC ([9]; MIC = ≥80% inhibition): ≤ 0.004 µg/mL; MIC [9, 12]: ≤ 0.01 µM |
| C[C@@H](c1ncncc1F)[C@](O)(Cn1cncn1)c1ccc(F)cc1F [Voriconazole, reference compound] |  |  |  |  |  |  |  |  | MIC [1]: ≥ 64 µg/mL and ≥ 260 µM; MIC ([7]; MIC = ≥80% inhibition): 0.008 µg/mL; MIC [7, 12]: 0.032 µM; MIC ([8]; MIC = ≥80% inhibition): 0.004 to 0.008 µg/mL; MIC [8, 12]: 0.016 to 0.032 µM; MIC ([9]; MIC = ≥80% inhibition): 0.156 µg/mL; MIC [9, 12]: 0.447 µM |
